System: mouse myoblasts (C2C12) myotubes
Assay: C2C12 myotube atrophy induced by C26 cell culture medium (HE staining, myotube diameter)
Assay type: cell-based
Conditions: C26 medium-induced C2C12 myotubes; for Myotube atrophy reversal rate (%): 48 h
Description: Carbamo(dithioperoxo)thioate analogs alleviate mouse myoblasts (C2C12) atrophy induced by mouse colon cancer cell (C26).
The diameter measurement method was used to evaluate the diameter of myotubes differentiated from mouse myoblasts (C2C12). The staining method used in the experiment was hematoxylin-eosin staining, referred to as HE staining. The hematoxylin stain is alkaline, positively charged, and easily binds to negatively charged and acidic deoxyribonucleic acid (DNA) in the nucleus with ionic bonding to show blue; while eosin is an acidic dye that dissociates into negatively charged anions in water and easily binds to the positively charged amino groups of proteins in the cytoplasm to show red. The stained cells were placed under a high-magnification microscope to take photos (magnification power: 400), and the diameter of myotubes could be counted using image J software.
The above method allows to evaluate the effect of the drug on the muscle atrophy cell model. The specific method is as follows.
C2C12 cells were seeded in 24-well plates in a culture medium of high-glucose DMEM medium containing 10% FBS and 1% P/S, and placed in a 5% CO2, 37° C. environment. When the cell density reaches 50%˜60%, the culture medium was changed into 2% HS differentiation medium (high-glucose DMEM medium containing 2% HS and 1% P/S); the differentiation medium was changed every 48 h until mature on day 5 or day 6. In addition, C26 cells were inoculated in T75 flasks, and the culture medium was changed into high-glucose DMEM medium containing 10% FBS and 1% P/S, and placed in a 5% CO2, 37° C. environment. While C26 cells (6×10^6 cells/flasks) were passaged, add 20 mL of culture medium to sequentially subculture for 48 h. To obtain the C26 supernatant, centrifuge C26 culture medium at 1000 rpm for 3 min and then at 4000 rpm for 10 min successively. The C26 supermatant and 2% HS differentiation medium were mixed 1:1 (volume ratio) as a muscle atrophy inducing medium. Except for the control group with 2% HS differentiation medium, other each group was added with the equal amounts of muscle atrophy-inducing medium and one group was used as the model group, and the rest groups were used as the experimental groups for drug administration. At the same time, carbamo(dithioperoxo)thioate compounds were added into the cells at the following gradient concentrations.
Wherein, the serial numbers correspond to the numbers of the accompanying figures, that is, FIG. 1-46 correspond to the samples of serial numbers 1-46 in Table 1. μM refers to μmol/L.
Myotube diameter was measured as follows.
After 48 h of action, the myotubes were fixed with fixative solution (anhydrous ethanol:formaldehyde:glacial acetic acid volume ratio=20:2:1) for more than 1 h, stained using hematoxylin-eosin staining method, and placed under a high-magnification microscope to acquire images and counted the diameter of myotubes using image J. The muscle atrophy reversal rate was calculated according to the following equation. Muscle atrophy reversal rate=(Average value of myotubes in drug administration group−Average value of myotubes in model group)/(Average value of myotubes in control group−Average value of myotubes in model group)×100%

Structure (SMILES) | Myotube atrophy reversal rate (%) (25 μM) | Myotube atrophy reversal rate (%) (50 μM) | Myotube atrophy reversal rate (%) (l00 μM) | reversal of myotube atrophy (activity in words) | Myotube atrophy reversal rate (%) (12.5 μM)
CCCCCCCCCCCCSSC(=S)N1CC2CCCCC2C1 (stereo not drawn) [Compound 12] | 20.85% | 49.43% | 66.73% | – | –
CCCCCCCCCCCSSC(=S)N1CCCC1 [Compound 3] | 35.76% | 33.40% | 46.11% | – | –
CCCCCCCCSSC(=S)N1CCCC1 [Compound 1] | 18.39% | 2.51% | 36.26% | – | –
CCCCCCCCCCCCCSSC(=S)N1CCCC1 [Compound 5] | 23.27% | 40.28% | – | – | –
CCCCCCCCCCCCSSC(=S)N1CCC(O)C1 (stereo not drawn) [Compound 13] | 18.05% | 42.38% | – | – | –
CCCCCCCCCCCCSSC(=S)N1CCC2(COC2)C1 [Compound 11] | 42.30% | 64.65% | – | – | –
CCCCCCCCCCCCSSC(=S)N1CCc2ccccc21 [Compound 10] | 10.82% | 25.32% | 45.93% | – | –
CCCCCCCCCCCCSSC(=S)N1CCC1 [Compound 17] | 26.34% | 53.97% | – | – | –
CCCCCCCCCCCCCCCCCCSSC(=S)N1CCCC1 [Compound 8] | −1.83% | 17.41% | 6.10% | lower | –
CCCCCCCCCCCCCCCCSSC(=S)N1CCCC1 [Compound 7] | 41.05% | 28.79% | 43.99% | – | –
CCCCCCCCCCCCSSC(=S)N1CCN(C)CC1 [Compound 16] | 31.39% | 46.75% | – | – | –
CCCCCCCCCCCCSSC(=S)N1CCOCC1 [Compound 15] | 26.47% | 48.24% | – | – | –
CCCCCCCCCCCCCCSSC(=S)N1CCCC1 [Compound 6] | 20.41% | 35.98% | 33.80% | – | –
CCCCCCCCCCCCSSC(=S)N1CCCCC1 [Compound 14] | 17.02% | 43.19% | – | – | –
CCCCCCCCCCSSC(=S)N1CCCC1 [Compound 2] | 43.90% (25 μM) | 61.05% (50 μM) | – | – | 16.94%
CCCCCCCCCCCCSSC(=S)N1Cc2ccccc2C1 [Compound 9] | 12.22% | 29.24% | 60.06% | – | –

Source: patent publication US12269808B2, “Amino dithioperacid thioester compound, preparation method therefor, and use thereof” (FUDAN UNIVERSITY, priority 2019, dated 2025)
